Measurements published in US9657034B2, “Substituted furo[3,2-c]pyridines, thieno[3,2-c]pyridines, thieno[2,3-d]pyridazines and pyrido[3,4-d]pyridazines as phosphodiesterase type 10A inhibitors” (AbbVie Deutschland GmbH & Co. KG, priority 2011, dated 2017).
pIC50: −log10 of the molar value.

How the values were obtained:
[1] = biological target: T1, PDE10A (human) (Homo sapiens, UniProt Q9Y233); test: Measurement of PDE activity (HTRF cAMP kit), PDE10A human; assay type: biochemical; details: Table 1
T1 construct: purchased BPS Bioscience
Procedure: The recombinant PDE proteins are used in in vitro enzymatic reaction for measurement of PDE activity. These recombinant proteins, including PDE10A (human, rat and mouse PDE10) and isoforms of PDEs 1, 3, 4, and 5, were purchased from commercial vendor BPS Bioscience. The enzymatic activity of PDEs was determined by cAMP measurement kit from CisBio (IBA) using HTRF technology.
The PDE enzymatic reaction was carried out in assay buffer (20 mM Tris-HCl pH7.5, 10 mM MgCl2, 0.1% bovine serum albumin) containing enzyme and substrate. The PDE enzymes concentration ranged from 10 pM-250 pM, depending on each enzyme's specific activity. The substrate cyclic nucleotide (cAMP or cGMP) concentration used in the assay was 20 nM for PDE10, and 100 nM for other PDEs. The inhibitory effect of compound was determined by incubating various concentration of inhibitor in the enzymatic assay. Typically, compound was serial diluted in DMSO then further diluted in assay buffer. Next, the compound at varying concentration was mixed with PDE enzyme. The reaction was initiated by addition of cyclic nucleotide substrate, and incubated for 60 minutes at 29 C. The reaction was stopped by addition of lysis buffer from assay kit. The cAMP-d2 and anti-cAMP cryptate in the lysis buffer detected the level of cAMP left from the PDE hydrolysis reaction. […]

[2] = system: rats; details: cited from earlier work
[3] = system: rats; details: cited from earlier work; remark: listed apart in the source
[4] = system: rats; details: cited from earlier work; remark: listed apart in the source

T1 sequence (Q9Y233 whole entry): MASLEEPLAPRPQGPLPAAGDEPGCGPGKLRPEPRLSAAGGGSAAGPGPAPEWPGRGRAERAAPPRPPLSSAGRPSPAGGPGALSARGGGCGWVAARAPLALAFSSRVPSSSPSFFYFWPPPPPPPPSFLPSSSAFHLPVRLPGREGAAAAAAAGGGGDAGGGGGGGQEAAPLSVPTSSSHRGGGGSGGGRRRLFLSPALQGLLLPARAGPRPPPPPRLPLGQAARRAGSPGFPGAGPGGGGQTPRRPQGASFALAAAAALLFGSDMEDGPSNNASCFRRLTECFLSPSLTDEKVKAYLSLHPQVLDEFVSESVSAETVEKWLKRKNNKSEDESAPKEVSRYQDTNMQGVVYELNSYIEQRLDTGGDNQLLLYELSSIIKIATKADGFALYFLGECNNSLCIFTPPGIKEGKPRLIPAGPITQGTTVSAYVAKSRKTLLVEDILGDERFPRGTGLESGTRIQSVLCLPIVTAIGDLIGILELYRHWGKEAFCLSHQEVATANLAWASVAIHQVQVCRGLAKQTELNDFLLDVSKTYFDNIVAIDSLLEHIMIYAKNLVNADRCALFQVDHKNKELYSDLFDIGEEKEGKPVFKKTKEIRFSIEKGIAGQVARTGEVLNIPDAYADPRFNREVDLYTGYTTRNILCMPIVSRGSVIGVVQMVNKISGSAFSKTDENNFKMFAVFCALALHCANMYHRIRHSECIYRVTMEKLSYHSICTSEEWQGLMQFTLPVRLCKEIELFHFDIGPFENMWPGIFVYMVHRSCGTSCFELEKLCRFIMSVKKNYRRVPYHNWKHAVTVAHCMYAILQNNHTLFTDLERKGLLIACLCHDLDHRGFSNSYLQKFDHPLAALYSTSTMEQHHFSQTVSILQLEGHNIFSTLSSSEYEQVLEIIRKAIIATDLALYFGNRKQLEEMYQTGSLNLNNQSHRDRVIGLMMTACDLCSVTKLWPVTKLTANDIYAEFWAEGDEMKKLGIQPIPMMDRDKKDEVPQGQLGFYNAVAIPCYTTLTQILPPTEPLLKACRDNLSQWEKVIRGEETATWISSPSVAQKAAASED

Compound | pIC50 [1] | catalepsy on its own ([2]; papaverine alone) | cataleptic effect of the D2 receptor antagonist haloperidol ([2]; together with haloperidol) | hyperactivity in rats induced by PCP [3] | reduction of amphetamine-induced hyperactivity [4]
O=c1c2cccc(-c3cccc(O)c3)c2cnn1CCc1ccc2ccccc2n1 [Example 220, 5-(3-hydroxyphenyl)-2-[2-(quinolin-2-yl)ethyl]phthalazin-1(2H)-one] | > 7.00 |  |  |  | 
COc1ccc(Cc2nccc3cc(OC)c(OC)cc23)cc1OC [Papaverine, papaverine] |  | did not cause catalepsy | potentiated the cataleptic effect | reduced hyperactivity | insignificant
anti 8-((3 S)-3-hydroxypiperidin-1-yl)-2-(2-(quinolin-2-yl)cyclopropyl)isoquinolin-1(2H)-one (2E)-but-2-enedioate [Example 244] | > 7.00 |  |  |  | 
